We go through two molecules from patent EP0528615A1, “Cribrostatins 1 and 2” (ARIZONA BOARD OF REGENTS, priority 1991, dated 1993).

For series [1], the system named is non-small lung cancer (A549/ATCC, HOP-18, and NCI-H460). Description: NCI panel cell lines, non-small lung cancer. The format is cell-based, human. The settings on record: non-small lung cancer (A549/ATCC, HOP-18, NCI-H460). An excerpt:
(§1) Presently the Cribrochalina sp. constituents are undergoing detailed antineoplastic evaluation. […] (See: Boyd, status of the NCI preclinical antitumor drug discovery screen: implications for selection of new agents for clinical trial. In: DeVita et al., Principles and Practices of Oncology, update series, Vol. 3, No. 10, Lippincott, Philadelphia 1989, pp1-12; and Boyd et al., Data display and analysis strategies from NCI disease oriented in vitro antitumor drug screen. In:Valeriote et al., Antitumor Drug Discovery and Development, Kluwer Academic Press, Amsterdam, 1990.) The human tumor cell line panel currently used for these studies consists of a diverse array of 60 different cell lines representing eight major cancer subtypes.

Series [2] has as its system colon cancer (CoLo 205). Put plainly: NCI panel cell lines, colon cancer. The format is cell-based, human.
Text: as §1

The test system of series [3] is P388 murine lymphocytic leukemia. Put plainly: in vitro PS leukemia cell growth inhibition (NCI P388 protocol). The settings on record: Mus musculus, isolated pure compounds, read-out: PS ED₅₀. The format is cell-based. An excerpt:
In early research devoted to the first systematic investigation of marine animals as new sources of potential anticancer drugs the phylum Porifera rapidly became of increasing importance. Subsequent detection of antineoplastic activity in some of these sponge species led to the isolation of such cell growth inhibitory compounds, as macrocyclic lactones, pyrroles, peptides, and proteins. Meanwhile the isolation of heterocyclic marine sponge constituents such as pyrroles, imidazoles, oxazoles, indoles, pyridines, quinolizidines, pteridines, acridines, other nitrogen systems and quinones has been rapidly accelerating. So far ten isoquinolinequinones have been isolated from blue species of the sponge genera Reniera and Xestospongia. In 1986 an exploratory survey of marine Porifera off remote islands in the Republic of the Maldives was conducted which located a deep blue colored specimen of Cribrochalina sp. (Haplosclerida order) that afforded an orange ethanol extract. The encrusting sponge was found in areas of strong (and dangerous) currents to -45m in the South side of East reef passages and yielded and ethanol extract that provided 40% life extension (at mg/kg) against the U.S. National Cancer Institute's in vivo murine P388 lymphocytic leukemia (PS system). […]

Series [4] has as its system melanoma cancer line (LOX-1MCI; MALME-3M; M14; M19-MEL; SK-MEL-2; KS-MEL-28; SK-MEL-5; UACC_257; UACC-62). The format is cell-based, human.
Text: as §1

The subject of series [5] is NCI human cancer cell lines. Description: NCI human cancer cell lines, cytostatic activity (general statement). The format is cell-based.
Text: as §1

Converted amounts (≈) assume the structure as drawn.

Consider `CC1=C(N)C(=O)c2c(ccnc2C)C1=O` [Cribrostatin 1], for which the “result in NCI panel cell line” value is reported as “especially favorable results” in series [1]; “especially favorable results” in series [2]; “especially favorable results” in series [4] (melanoma (MALME-3M, M14, M19-MEL, SK-MEL-2, SK-MEL-28, UACC-257, UACC-62)). In addition, the IC50 in series [3] worked out at 1.58 µg/mL (≈ 7.81 µM). In addition, the LC₅₀ in series [4] is given as 10⁻⁵ - 10⁻⁶. In addition, the “sensitivity relative to panel mean” value in series [4] (all nine melanoma lines of the 60 cell line panel) is “sensitivity greater than the panel mean”. Further, the cytostatic properties result in series [5] is “cytostatic properties”.
As to `CCOC1=C(C)C(=O)c2cc(=O)n(C)cc2C1=O` [Cribrostatin 2], the IC50 in series [3] amounted to 2.73 µg/mL (≈ 11 µM). Further, in series [5], the cytostatic properties result was “cytostatic properties”.
